These results are taken from patent US11191746B2, “Composition for inhibiting a growth of cancer stem cells comprising ciclesonide” (JEJU NATIONAL UNIVERSITY INDUSTRY-ACADEMIC COOPERATION …, priority 2016, dated 2021).

For test [1], the system named is A549 cells. Description: Clonogenic assay. The test is classed as cell-based, human. The settings on record: A549, 10 μM. As to the method: (§1) MDA-MB-231 cells or A549 cells were inoculated at low density in a 6-well plate, and, in a DMEM medium, the MDA-MB-231 cells were treated with different concentrations of ciclesonide, or the A549 cells were treated with 10 μM ciclesonide. After 24 hours, the medium was replaced with a new medium and cultured for […] to allow the cells to grow. The grown colonies were counted.

For test [2], the system named is MDA-MB-231 cells. Description: Clonogenic assay. Type of test: cell-based, human. How it is done: as §1
Test [3] deals with A549 cells. Nature of the test: Scratch migration analysis. The test is classed as cell-based, human. The settings on record: A549, wound healing at 18 hours. As to the method: (§2) MDA-MB-231 cells or A549 cells were inoculated into a 6-well plate and grown to 90% confluency. A scratch was made on the cell layer using a sterile white micropipette tip. After washing with DMEM medium, the breast cancer cells or lung cancer cells were treated with ciclesonide or DMSO. At 18 hours, wounded areas were photographed using an optical microscope at a magnification of ×40.

In test [4] the test system is MDA-MB-231 cells. Nature of the test: Scratch migration analysis. Type of test: cell-based, human. Particulars: MDA-MB-231, wound healing at 18 hours. As to the method:
as §2

Test [5] deals with MCF-7 cells. Nature of the test: ALDEFLUOR analysis, breast cancer cells. The test is classed as cell-based, human. The settings on record: 24 hours. As to the method:
An ALDEFLUOR analysis system provides a novel approach to the identification, evaluation, and isolation of CSCs based on the activity of aldehyde dehydrogenase (ALDH). BODIPY-aminoacetaldehyde as an active reagent was added to breast cancer cells or lung cancer cells, and converted into fluorescent BODIPY-aminoacetate by ALDH. Diethylaminobenzaldehyde (DEAB), which is an ALDH inhibitor, was used as a negative control. MCF-7 cells or A549 cells were treated with 10 μM or 20 μM ciclesonide for 24 hours, and the proportion of ALDH-positive cells was analyzed by ALDEFLUOR assay. ALDH-positive and negative cells were sorted by C6 Accuri flow cytometry (BD Bioscience).

Test [6] has as its system A549 cells. Description: Annexin V/PI staining, FACS. Type of test: cell-based, human. The settings on record: A549, 10 μM and 20 μM, 24 hours. As to the method:
(§3) Cancer cells were cultured in a 6-well plate for 24 hours along with 20 μM of ciclesonide for the case of breast cancer and 10 μM or 20 μM of ciclesonide or DMSO for the case of lung cancer. In accordance with the manufacturer's protocol, apoptotic cells were double-stained with PI and FITC-Annexin V. The sample was analyzed by flow cytometry (Accuri C6, BD, San Diego, Calif., USA).

Test [7] has as its system MDA-MB-231 cells. Nature of the test: Annexin V/PI staining, FACS. The test is classed as cell-based, human. The settings on record: MDA-MB-231, 20 μM, 24 hours. How it is done:
as §3

In test [8] the test system is A549 cell xenograft tumor. Nature of the test: Lung cancer xenograft model in NOD-SCID male nude mice. The test is classed as in vivo. The settings on record: 10 mg/kg. As to the method:
A total of 12 NOD-SCID (BALB/cSIc (nu/nu)) male nude mice producing lung cancer cells were divided into two groups. […] The volume of tumors of each control mouse was measured every three days and calculated by the following equation: (width×length^2)/2. The other six nude mice received neoadjuvant chemotherapy using a test drug by infusion at an optimum dose of 10 mg/kg/day.

The subject of another test is IL-8. Nature of the test: Human inflammatory cytokine assay (CBA), tumorspheres. The test is classed as cell-based. Particulars: A549 tumorspheres. As to the method: Mixed capture beads were vortexed and 50 μl of beads were added to assay tubes. 50 μl of human inflammatory cytokine standard and the cultured tumorsphere solution were added to the assay tubes, and then mixed with a cytokine PE solution. After 3 hours, the mixed solution was washed and analyzed by flow cytometry (Accuri C6, BD, San Diego, Calif., USA).

For test [9], the system named is MCF-7 cell xenograft tumor. Nature of the test: Breast cancer xenograft model in NOD-SCID female nude mice. Type of test: in vivo. Particulars: MCF-7 xenograft, 10 mg/kg. How it is done: A total of 12 NOD-SCID (BALB/cSIc (nu/nu)) female nude mice producing breast cancer cells were divided into two groups. […] The volume of tumors of each control mouse was measured every three days and calculated by the following equation: (width×length^2)/2. The other six nude mice received neoadjuvant chemotherapy using a test drug by infusion at an optimum dose of 10 mg/kg/day.

Test [10] relates to A549 cells. Description: Caspase-3/7 analysis (Caspase-Glo 3/7). The test is classed as cell-based, human. Particulars: A549, 80 μM, 24 hours. How it is done: (§4) Breast cancer cells and lung cancer cells were treated with ciclesonide at different concentrations for 24 hours. Caspase-3/7 activity was measured in accordance with the manufacturer's protocol for the Caspase-Glo 3/7 kit (Promega, Wisconsin, USA). 100 μl of a Caspase-Glo 3/7 reagent was added to a 96-well plate where cancer cells were cultured. The plate was covered with a plate sealer, followed by culture at room temperature for 1 hour, and measured using a plate-reading luminometer, GloMax® Explorer (Promega, Wisconsin, USA).

For test [11], the system named is MDA-MB-231 cells. Nature of the test: Caspase-3/7 analysis (Caspase-Glo 3/7). The test is classed as cell-based, human. Particulars: MDA-MB-231, 40 μM and 80 μM, 24 hours. How it is done:
as §4

The subject of a further test is mammospheres. Description: Mammosphere proliferation (cell counting). Particulars: mammospheres treated 2 days, single cells replated and counted. Type of test: cell-based, human. How it is done:
FIG. 6B illustrates the effect of ciclesonide on mammosphere growth wherein ciclesonide inhibits the growth of mammospheres, mammospheres having been treated with ciclesonide or DMSO for 2 days were separated into single cells and plated in 6 cm dishes at the same density. 24 hours after plating, the cells were counted, on days 2 and 3, the cells were counted three times, and plotted as mean values, and the data was expressed as the mean±SD for the three independent experimental results. *p<0.05 vs. DMSO-treated control.

Test [12] concerns MCF-7 cells. Nature of the test: CD44 and CD24 expression flow cytometric analysis. The test is classed as cell-based, human. Particulars: 24 hours, FACS. How it is done:
The expression of CD44 and CD24 in MCF-7 cells was measured by FACS analysis. After isolating and harvesting cells using 1× trypsin/EDTA, one million cells were suspended, labeled with an FITC-conjugated anti-human CD44 antibody and a PE-conjugated anti-human CD24 antibody (BD Pharmingen, San Diego, Calif., USA), and incubated at 4° C. for 30 minutes. The cells were then washed three times with 1× PBS and analyzed by flow cytometry (Accuri C6, BD, San Diego, Calif., USA).
For orientation: In flow cytometry, cells or beads pass a laser one at a time.

As to `CC(C)C(=O)OCC(=O)[C@@]12O[C@H](C3CCCCC3)O[C@@H]1C[C@H]1[C@@H]3CCC4=CC(=O)C=C[C@]4(C)[C@H]3[C@@H](O)C[C@@]12C` [ciclesonide], the colony formation result with A549 cells [1] and with MDA-MB-231 cells [2] was “inhibited” in each case. Also, the migration entry in the test on A549 cells [3] and in the test with MDA-MB-231 cells [4] was “inhibited” in each case. Also, the “proportion of ALDH-positive breast cancer cells” value with MCF-7 cells [5] is “reduced”. In addition, the “number of apoptotic lung cancer cells (annexin V+)” value with A549 cells [6] is listed as “increased”. In addition, the “number of apoptotic breast cancer cells (annexin V+)” value with MDA-MB-231 cells [7] is reported as “increased”. For the same compound, the “tumor volume vs control not treated” value in test [8] and in test [9] was “smaller” in each case. In addition, the “tumor weight vs control not treated” value in test [8] and in [9] was “smaller” in each case. For the same compound, the “production level of IL-8” value in the test with IL-8 was “reduced”. Also, the “caspase 3/7 activity” value in the test with A549 cells [10] and in the test with MDA-MB-231 cells [11] was “induced” each time. In addition, the proliferation of mammospheres result in the test on mammospheres was “significantly reduced”. In addition, the “subpopulation expressing CD44high/CD24low” value in the test with MCF-7 cells [12] is reported as “reduced”.
